These are literature values, as cited in US20260337208A1, “HETEROCYCLIC DERIVATIVES AS JANUS KINASE INHIBITORS” (CHIESI FARMACEUTICI S.P.A., priority 2022, published 2026).

For data set [1] the following is noted: bleomycin-induced fibrosis mouse model; cited from earlier work.
The conditions of data set [2]: cited from earlier work; for admission rate of the intensive care unit / incidence of acute respiratory distress syndrome (ARDS) / risk of mortality / use of invasive mechanical ventilation: COVID-19.
The conditions of data set [3]: in vivo; cited from earlier work.
For data set [4] the following is noted: in combination with nintedanib; case report; cited from earlier work.
Data set [5] relates to house dust mite mouse model of asthma. The conditions noted are these: formulated for being administered as aerosol; cited from earlier work.
The conditions of data set [6]: RA patients, including a subgroup with interstitial lung disease; cited from earlier work.

Regarding `N#CC[C@H](C1CCCC1)n1cc(-c2ncnc3[nH]ccc23)cn1` [Ruxolitinib, ruxolitinib], in data set [1], the “fibrotic lesions in lung” value was “ameliorated the fibrotic lesions in lung” and the “levels of fibrotic molecular markers” value is “reduced levels of fibrotic molecular markers”. Further, in data set [2], the “admission rate of the intensive care unit” value was “borderline impact”, the “incidence of acute respiratory distress syndrome (ARDS)” value is listed as “borderline impact”, the risk of mortality entry is given as “reduced risk of mortality” and the “use of invasive mechanical ventilation” value is “reduced the use of invasive mechanical ventilation”. Further, in data set [2] (COVID-19 patients), the “clinical symptoms and chest computed tomography images” value is “improved the clinical symptoms and chest computed tomography images”.
As to `C[C@@H]1CCN(C(=O)CC#N)C[C@@H]1N(C)c1ncnc2[nH]ccc12` [tofacitinib], in data set [3], the “preventive effect in experimental dermal and pulmonary fibrosis” value is recorded as “acted as a preventive agent”. Moreover, the “efficacy and safety in aggressive interstitial lung disease” value in data set [4] was “corroborated the efficacy and safety”. In addition, the eosinophils count entry in data set [5] is given as “reduced eosinophils count”.
In the case of `CCS(=O)(=O)N1CC(CC#N)(n2cc(-c3ncnc4[nH]ccc34)cn2)C1` [Baricitinib, baricitinib], in data set [6], the “biomarkers' levels of lung fibrosis and inflammation” value is “reduces the biomarkers' levels of lung fibrosis and inflammation”; the “safety as immune modulator” value is reported as “safe immune modulator”. Also, in data set [2], the “admission rate of the intensive care unit” value was “borderline impact”, the “incidence of acute respiratory distress syndrome (ARDS)” value is listed as “borderline impact”, the risk of mortality entry is “reduced risk of mortality” and the “use of invasive mechanical ventilation” value is recorded as “reduced the use of invasive mechanical ventilation”.
